# In patent publication US10168342B2, “Lipid probes and uses thereof” (THE SCRIPPS RESEARCH INSTITUTE, priority 2015, dated 2019):
# What was measured:
# [1] = test system: lipid-binding proteins in Neuro2a cells; assay: SILAC MS mapping of lipid probe targets (probe-versus-No UV, probe-versus-probe) in Neuro2a cells; format: cell-based, mouse; details: AEA-DA probe vs NoUV
# [2] = target: T1, lipid-binding proteins in Neuro2a cells (Mus musculus, UniProt P97300); assay: as above; format: cell-based; details: AEA-DA probe vs NoUV
# T1 construct: endogenous in cells; host or cells: Neuro2a
# [3] = target: T2, lipid-binding proteins in Neuro2a cells (Mus musculus, UniProt Q8BJ03); assay: as above; format: cell-based; details: protein Cox15, AEA-DA probe, No UV control
# T2 construct: endogenous in cells; host or cells: Neuro2a
# [4] = target: T3, lipid-binding proteins in Neuro2a cells (Mus musculus, UniProt Q62465); assay: as above; format: cell-based; details: AEA-DA probe vs NoUV
# T3 construct: endogenous in cells; host or cells: Neuro2a
# [5] = target: T4, lipid-binding proteins in Neuro2a cells (Mus musculus, UniProt Q61712); assay: as above; format: cell-based; details: AEA-DA probe vs NoUV
# T4 construct: endogenous in cells; host or cells: Neuro2a
# [6] = target: T5, lipid-binding proteins in Neuro2a cells (Mus musculus, UniProt Q9CQ85); assay: as above; format: cell-based; details: AEA-DA probe vs NoUV
# T5 construct: endogenous in cells; host or cells: Neuro2a
# [7] = target: T6, lipid-binding proteins in Neuro2a cells (Mus musculus, UniProt P21619); assay: as above; format: cell-based; details: protein Lmnb2, AEA-DA probe, No UV control
# T6 construct: endogenous in cells; host or cells: Neuro2a
# [8] = target: T7, lipid-binding proteins in Neuro2a cells (Mus musculus, UniProt Q60932); assay: as above; format: cell-based; details: AEA-DA probe vs NoUV
# T7 construct: endogenous in cells; host or cells: Neuro2a
# [9] = target: T8, lipid-binding proteins in Neuro2a cells (Mus musculus, UniProt Q80UU9); assay: as above; format: cell-based; details: AEA-DA probe vs NoUV
# T8 construct: endogenous in cells; host or cells: Neuro2a
# [10] = target: T9, lipid-binding proteins in Neuro2a cells (Mus musculus, UniProt Q505D7); assay: as above; format: cell-based; details: AEA-DA probe vs NoUV
# T9 construct: endogenous in cells; host or cells: Neuro2a
# [11] = target: T10, lipid-binding proteins in Neuro2a cells (Mus musculus, UniProt O70503); assay: as above; format: cell-based; details: AEA-DA probe vs NoUV
# T10 construct: endogenous in cells; host or cells: Neuro2a
# [12] = target: T11, lipid-binding proteins in Neuro2a cells (Mus musculus, UniProt Q8VCB1); assay: as above; format: cell-based; details: AEA-DA probe vs NoUV
# T11 construct: endogenous in cells; host or cells: Neuro2a
# [13] = target: T12, lipid-binding proteins in Neuro2a cells (Mus musculus, UniProt Q3KNM2); assay: as above; format: cell-based; details: AEA-DA probe vs NoUV
# T12 construct: endogenous in cells; host or cells: Neuro2a
# [14] = target: T13, lipid-binding proteins in Neuro2a cells (Mus musculus, UniProt P45878); assay: as above; format: cell-based; details: protein Fkbp2, AEA-DA probe, No UV control
# T13 construct: endogenous in cells; host or cells: Neuro2a
# [15] = target: T14, lipid-binding proteins in Neuro2a cells (Mus musculus, UniProt Q91VM5); assay: as above; format: cell-based; details: protein Rbmxl1, AEA-DA probe, No UV control
# T14 construct: endogenous in cells; host or cells: Neuro2a
# [16] = target: T15, lipid-binding proteins in Neuro2a cells (Mus musculus, UniProt Q924Z4); assay: as above; format: cell-based; details: AEA-DA probe vs NoUV
# T15 construct: endogenous in cells; host or cells: Neuro2a
# [17] = target: T16, lipid-binding proteins in Neuro2a cells (Mus musculus, UniProt Q8VCX5); assay: as above; format: cell-based; details: protein Micu1, AEA-DA probe, No UV control
# T16 construct: endogenous in cells; host or cells: Neuro2a
# [18] = target: T17, lipid-binding proteins in Neuro2a cells (Mus musculus, UniProt P52019); assay: as above; format: cell-based; details: AEA-DA probe vs NoUV
# T17 construct: endogenous in cells; host or cells: Neuro2a
# [19] = target: T18, lipid-binding proteins in Neuro2a cells (Mus musculus, UniProt Q8BIJ6); assay: as above; format: cell-based; details: protein Iars2, AEA-DA probe, No UV control
# T18 construct: endogenous in cells; host or cells: Neuro2a
# [20] = target: T19, lipid-binding proteins in Neuro2a cells (Mus musculus, UniProt Q91V01); assay: as above; format: cell-based; details: AEA-DA probe vs NoUV
# T19 construct: endogenous in cells; host or cells: Neuro2a
# [21] = target: T20, lipid-binding proteins in Neuro2a cells (Mus musculus, UniProt Q99KJ8); assay: as above; format: cell-based; details: protein Dctn2, AEA-DA probe, No UV control
# T20 construct: endogenous in cells; host or cells: Neuro2a
# [22] = target: T21, lipid-binding proteins in Neuro2a cells (Mus musculus, UniProt Q8R0X7); assay: as above; format: cell-based; details: AEA-DA probe vs NoUV
# T21 construct: endogenous in cells; host or cells: Neuro2a
# [23] = target: AEA-DA lipid probe targets in A549 cells (Homo sapiens, UniProt P21796); assay: In situ competitive SILAC profiling with AEA-DA probe in A549 cells; details: competitor 25 μM
# [24] = target: AEA-DA lipid probe targets in A549 cells (Homo sapiens, UniProt Q53GQ0); assay: as above; details: competitor 25 μM
# [25] = target: AEA-DA lipid probe targets in A549 cells (Homo sapiens, UniProt Q14534); assay: as above; details: competitor 25 μM
# [26] = target: AEA-DA lipid probe targets in A549 cells (Homo sapiens, UniProt O95470); assay: as above; details: competitor 25 μM
# [27] = target: AEA-DA lipid probe targets in A549 cells (Homo sapiens, UniProt Q86XL3); assay: as above; details: competitor 25 μM
# [28] = target: AEA-DA lipid probe targets in A549 cells (Homo sapiens, UniProt P30519); assay: as above; details: competitor 25 μM
# [29] = target: AEA-DA lipid probe targets in A549 cells (Homo sapiens, UniProt P45880); assay: as above; details: competitor 25 μM
# [30] = target: AEA-DA lipid probe targets in A549 cells (Homo sapiens, UniProt P67812); assay: as above; details: competitor 25 μM
# [31] = test system: AEA-DA lipid probe targets in A549 cells; assay: as above; details: competitor 25 μM
# T17 sequence (P52019 whole entry): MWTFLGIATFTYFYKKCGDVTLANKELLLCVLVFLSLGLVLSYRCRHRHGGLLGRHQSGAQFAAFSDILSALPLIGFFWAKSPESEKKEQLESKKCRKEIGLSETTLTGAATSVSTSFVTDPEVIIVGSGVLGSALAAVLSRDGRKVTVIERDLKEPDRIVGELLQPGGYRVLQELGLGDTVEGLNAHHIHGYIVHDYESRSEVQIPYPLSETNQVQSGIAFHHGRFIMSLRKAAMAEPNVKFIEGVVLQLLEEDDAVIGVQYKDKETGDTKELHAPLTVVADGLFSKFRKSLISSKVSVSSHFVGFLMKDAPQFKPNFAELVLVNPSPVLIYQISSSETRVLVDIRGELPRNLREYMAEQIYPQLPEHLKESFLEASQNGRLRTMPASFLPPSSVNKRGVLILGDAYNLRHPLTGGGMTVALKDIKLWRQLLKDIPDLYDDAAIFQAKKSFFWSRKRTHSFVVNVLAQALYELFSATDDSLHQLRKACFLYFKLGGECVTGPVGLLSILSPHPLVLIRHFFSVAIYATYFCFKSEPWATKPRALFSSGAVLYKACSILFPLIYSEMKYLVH
# T9 sequence (Q505D7 whole entry): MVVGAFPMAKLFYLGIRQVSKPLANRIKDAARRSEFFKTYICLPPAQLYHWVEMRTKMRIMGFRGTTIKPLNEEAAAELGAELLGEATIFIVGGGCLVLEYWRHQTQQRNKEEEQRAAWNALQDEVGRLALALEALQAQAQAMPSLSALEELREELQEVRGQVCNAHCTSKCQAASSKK
# AEA-DA lipid probe targets in A549 cells (Homo sapiens, UniProt P30519), sequence (P30519 whole entry): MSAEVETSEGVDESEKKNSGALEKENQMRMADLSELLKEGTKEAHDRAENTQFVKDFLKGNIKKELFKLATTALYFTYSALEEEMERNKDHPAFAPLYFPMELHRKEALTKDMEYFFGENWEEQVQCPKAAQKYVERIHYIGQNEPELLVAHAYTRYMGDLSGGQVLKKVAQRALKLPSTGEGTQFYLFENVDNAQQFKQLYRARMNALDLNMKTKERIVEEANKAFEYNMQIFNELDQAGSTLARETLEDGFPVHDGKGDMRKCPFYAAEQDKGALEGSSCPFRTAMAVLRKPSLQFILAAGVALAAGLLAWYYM
# T2 sequence (Q8BJ03 whole entry): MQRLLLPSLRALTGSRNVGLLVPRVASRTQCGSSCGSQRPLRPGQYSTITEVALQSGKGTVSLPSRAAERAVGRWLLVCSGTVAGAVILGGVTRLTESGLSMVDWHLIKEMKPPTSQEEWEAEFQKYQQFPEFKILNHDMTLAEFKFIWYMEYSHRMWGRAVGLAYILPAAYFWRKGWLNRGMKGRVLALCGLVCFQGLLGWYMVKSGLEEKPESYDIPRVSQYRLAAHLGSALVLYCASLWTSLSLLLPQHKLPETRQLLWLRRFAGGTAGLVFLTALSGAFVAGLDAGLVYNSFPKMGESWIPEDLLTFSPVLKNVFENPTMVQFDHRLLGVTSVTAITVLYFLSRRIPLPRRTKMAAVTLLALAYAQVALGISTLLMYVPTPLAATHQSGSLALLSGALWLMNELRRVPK
# AEA-DA lipid probe targets in A549 cells (Homo sapiens, UniProt Q14534), sequence (Q14534 whole entry): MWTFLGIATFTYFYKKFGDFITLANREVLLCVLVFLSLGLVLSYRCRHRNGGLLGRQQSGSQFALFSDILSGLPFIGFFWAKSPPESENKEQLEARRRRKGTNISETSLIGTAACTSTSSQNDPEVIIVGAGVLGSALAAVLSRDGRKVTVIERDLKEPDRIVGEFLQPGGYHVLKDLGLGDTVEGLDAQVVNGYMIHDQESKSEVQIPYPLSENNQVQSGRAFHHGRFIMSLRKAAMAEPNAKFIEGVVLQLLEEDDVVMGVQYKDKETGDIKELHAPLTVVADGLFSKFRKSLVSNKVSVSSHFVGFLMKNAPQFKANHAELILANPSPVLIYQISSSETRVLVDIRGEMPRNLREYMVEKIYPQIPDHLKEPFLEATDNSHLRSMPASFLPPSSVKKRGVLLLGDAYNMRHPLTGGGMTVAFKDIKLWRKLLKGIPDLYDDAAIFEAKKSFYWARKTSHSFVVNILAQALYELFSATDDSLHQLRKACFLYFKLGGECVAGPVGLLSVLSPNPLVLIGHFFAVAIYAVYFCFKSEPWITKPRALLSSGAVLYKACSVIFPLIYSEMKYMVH
# AEA-DA lipid probe targets in A549 cells (Homo sapiens, UniProt Q86XL3), sequence (Q86XL3 whole entry): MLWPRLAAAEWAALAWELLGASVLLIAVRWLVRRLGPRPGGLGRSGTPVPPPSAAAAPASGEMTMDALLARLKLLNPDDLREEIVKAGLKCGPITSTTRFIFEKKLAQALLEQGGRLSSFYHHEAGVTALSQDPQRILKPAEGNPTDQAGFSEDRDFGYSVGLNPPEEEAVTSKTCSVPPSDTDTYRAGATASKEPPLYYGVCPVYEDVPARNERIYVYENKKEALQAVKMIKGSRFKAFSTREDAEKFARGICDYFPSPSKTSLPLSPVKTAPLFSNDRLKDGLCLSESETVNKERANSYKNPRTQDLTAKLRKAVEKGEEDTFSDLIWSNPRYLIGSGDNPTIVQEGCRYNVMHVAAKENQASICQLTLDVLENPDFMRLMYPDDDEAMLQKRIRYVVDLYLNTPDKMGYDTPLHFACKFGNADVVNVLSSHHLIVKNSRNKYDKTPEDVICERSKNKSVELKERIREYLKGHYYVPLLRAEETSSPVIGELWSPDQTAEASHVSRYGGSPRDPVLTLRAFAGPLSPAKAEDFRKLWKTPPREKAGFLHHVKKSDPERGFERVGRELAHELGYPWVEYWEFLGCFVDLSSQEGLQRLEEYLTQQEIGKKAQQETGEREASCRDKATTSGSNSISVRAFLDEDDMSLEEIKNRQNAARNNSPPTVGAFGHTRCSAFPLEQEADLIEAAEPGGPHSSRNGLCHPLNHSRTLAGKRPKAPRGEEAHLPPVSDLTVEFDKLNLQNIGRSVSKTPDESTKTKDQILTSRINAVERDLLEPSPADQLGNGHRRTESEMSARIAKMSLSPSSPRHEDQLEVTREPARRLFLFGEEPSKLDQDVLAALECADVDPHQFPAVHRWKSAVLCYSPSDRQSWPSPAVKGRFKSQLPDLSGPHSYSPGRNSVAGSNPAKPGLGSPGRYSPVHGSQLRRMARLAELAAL
# T21 sequence (Q8R0X7 whole entry): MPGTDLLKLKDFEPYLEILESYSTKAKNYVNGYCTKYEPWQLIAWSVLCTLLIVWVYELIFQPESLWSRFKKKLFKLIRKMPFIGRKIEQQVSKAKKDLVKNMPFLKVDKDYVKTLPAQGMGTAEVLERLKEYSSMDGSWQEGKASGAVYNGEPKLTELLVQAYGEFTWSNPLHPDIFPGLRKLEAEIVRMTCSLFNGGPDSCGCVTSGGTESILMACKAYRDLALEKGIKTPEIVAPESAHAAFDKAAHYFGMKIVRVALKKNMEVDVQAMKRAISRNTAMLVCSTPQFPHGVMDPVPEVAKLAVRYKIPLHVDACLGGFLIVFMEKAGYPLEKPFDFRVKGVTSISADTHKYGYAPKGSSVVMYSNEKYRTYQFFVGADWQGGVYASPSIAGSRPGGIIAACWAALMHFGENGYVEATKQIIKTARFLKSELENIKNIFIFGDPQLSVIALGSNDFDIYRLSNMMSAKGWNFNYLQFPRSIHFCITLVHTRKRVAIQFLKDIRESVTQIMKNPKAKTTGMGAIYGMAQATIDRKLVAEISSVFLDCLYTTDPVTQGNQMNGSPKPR
# T10 sequence (O70503 whole entry): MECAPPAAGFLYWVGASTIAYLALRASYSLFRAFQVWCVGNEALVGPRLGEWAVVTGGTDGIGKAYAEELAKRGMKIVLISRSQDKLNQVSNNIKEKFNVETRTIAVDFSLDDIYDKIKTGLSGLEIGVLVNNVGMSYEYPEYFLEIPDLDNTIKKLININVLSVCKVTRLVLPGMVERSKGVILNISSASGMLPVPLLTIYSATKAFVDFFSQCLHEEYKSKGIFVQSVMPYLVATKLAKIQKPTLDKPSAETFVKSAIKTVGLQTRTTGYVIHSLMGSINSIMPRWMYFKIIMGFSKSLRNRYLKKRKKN
# AEA-DA lipid probe targets in A549 cells (Homo sapiens, UniProt P45880), sequence (P45880 whole entry): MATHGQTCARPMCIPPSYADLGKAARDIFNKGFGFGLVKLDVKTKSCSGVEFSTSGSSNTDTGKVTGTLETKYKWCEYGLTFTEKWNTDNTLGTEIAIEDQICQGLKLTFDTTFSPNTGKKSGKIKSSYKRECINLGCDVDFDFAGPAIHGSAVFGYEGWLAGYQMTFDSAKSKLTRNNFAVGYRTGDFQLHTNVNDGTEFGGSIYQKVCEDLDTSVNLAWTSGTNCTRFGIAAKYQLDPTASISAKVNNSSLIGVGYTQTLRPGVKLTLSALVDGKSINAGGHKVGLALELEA
# T1 sequence (P97300 29-397): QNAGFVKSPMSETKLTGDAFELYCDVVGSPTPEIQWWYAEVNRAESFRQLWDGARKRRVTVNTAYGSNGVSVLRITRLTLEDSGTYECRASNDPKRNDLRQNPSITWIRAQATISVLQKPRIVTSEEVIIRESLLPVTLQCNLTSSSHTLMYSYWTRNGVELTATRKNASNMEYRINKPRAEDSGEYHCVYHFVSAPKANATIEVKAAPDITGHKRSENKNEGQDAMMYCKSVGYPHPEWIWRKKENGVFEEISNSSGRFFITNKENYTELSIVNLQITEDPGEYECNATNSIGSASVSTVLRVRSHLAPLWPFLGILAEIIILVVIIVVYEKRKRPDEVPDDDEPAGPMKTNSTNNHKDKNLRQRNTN
# T14 sequence (Q91VM5 whole entry): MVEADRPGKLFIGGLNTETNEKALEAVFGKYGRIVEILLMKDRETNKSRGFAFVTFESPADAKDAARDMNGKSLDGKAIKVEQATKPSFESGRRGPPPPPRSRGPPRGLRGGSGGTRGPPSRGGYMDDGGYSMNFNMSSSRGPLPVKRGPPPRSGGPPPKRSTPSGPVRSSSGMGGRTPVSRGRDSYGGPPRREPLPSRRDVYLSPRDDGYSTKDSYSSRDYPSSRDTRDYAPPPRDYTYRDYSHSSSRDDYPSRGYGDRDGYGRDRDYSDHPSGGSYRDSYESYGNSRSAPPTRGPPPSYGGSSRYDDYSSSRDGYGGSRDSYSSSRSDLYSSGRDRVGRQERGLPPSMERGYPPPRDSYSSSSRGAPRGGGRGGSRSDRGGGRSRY
smiles,measurement,setting,value
"C#CCCCC1(CC/C=C\C/C=C\C/C=C\CCCC(=O)NCCO)N=N1 [AEA-DA, (5Z,8Z,11Z)-N-(2-hydroxyethyl)-14-(3-(pent-4-yn-1-yl)-3H-diazirin-3-yl)tetradeca-5,8,11-trienamide]","SILAC ratio, GM20425 (E9Q035)",[1],16.5
same,"SILAC ratio, NPTN (Q9Y639)",[2],17.4
same,"SILAC ratio, AEA-DA probe versus No UV",[3],12.3
same,"SILAC ratio, VAT1 (Q99536)",[4],4.4
same,"SILAC ratio, DNAJC1 (Q96KC8)",[5],20.0
same,"SILAC ratio, TIMM22 (Q9CQ85)",[6],13.6
same,"SILAC ratio, AEA-DA probe versus No UV",[7],20.0
same,"SILAC ratio, VDAC1 (P21796)",[8],20.0
same,"SILAC ratio, PGRMC2 (Q80UU9)",[9],16.3
same,"SILAC ratio, OPA3 (Q505D7)",[10],20.0
same,"SILAC ratio, HSD17B12 (Q53GQ0)",[11],15.3
same,"SILAC ratio, TMEM48 (Q8VCB1)",[12],14.5
same,"SILAC ratio, MARCH5 (Q3KNM2)",[13],20.0
same,"SILAC ratio, AEA-DA probe versus No UV",[14],5.6
same,"SILAC ratio, AEA-DA probe versus No UV",[15],6.0
same,"SILAC ratio, CERS2 (Q924Z4)",[16],17.1
same,"SILAC ratio, AEA-DA probe versus No UV",[17],20.0
same,"SILAC ratio, SQLE (Q14534)",[18],5.0
same,"SILAC ratio, AEA-DA probe versus No UV",[19],20.0
same,"SILAC ratio, LPCAT3 (Q6P1A2)",[20],18.7
same,"SILAC ratio, AEA-DA probe versus No UV",[21],11.6
same,"SILAC ratio, SGPL1 (O95470)",[22],20.0
"O=C(/C=C/c1cccnc1)NCCCCC1CCN(C(=O)c2ccccc2)CC1 [FK-866, reference compound]","SILAC ratio, VDAC1 (P21796)",[23],0.8
same,"SILAC ratio, HSD17B12 (Q53GQ0)",[24],0.8
same,"SILAC ratio, SQLE (Q14534)",[25],0.7
same,"SILAC ratio, SGPL1 (O95470)",[26],0.8
same,"SILAC ratio, ANKLE2 (Q86XL3)",[27],0.6
same,"SILAC ratio, HMOX2 (P30519)",[28],0.7
same,"SILAC ratio, VDAC2 (P45880)",[29],0.9
same,"SILAC ratio, SEC11A (P67812)",[30],0.6
same,"SILAC ratio, PGRMC2 (Q80UU9)",[31],0.7
same,"SILAC ratio, PSAP (P07602)",[31],0.7
same,"SILAC ratio, TOMM22 (Q9CPQ3)",[31],0.6
same,"SILAC ratio, UGT1A7 (Q9HAW7)",[31],1.5
